From patent publication US9840498B2, “Substituted quinazolin-4-one derivatives” (NOVARTIS AG, priority 2013, dated 2017)

Each molecule was assayed against human phosphoinositide-3 kinase (PI3K) delta (Homo sapiens (Human), UniProt O00329) (assay: PI3K-mediated Akt 1/2 (S473) phosphorylation in Rat-1 cells overexpressing PI3K delta). Details: cellular assay, p-AKT(Ser473), read-out: Cell PI3K delta IC50.
Sequence of human phosphoinositide-3 kinase (PI3K) delta (O00329 whole entry): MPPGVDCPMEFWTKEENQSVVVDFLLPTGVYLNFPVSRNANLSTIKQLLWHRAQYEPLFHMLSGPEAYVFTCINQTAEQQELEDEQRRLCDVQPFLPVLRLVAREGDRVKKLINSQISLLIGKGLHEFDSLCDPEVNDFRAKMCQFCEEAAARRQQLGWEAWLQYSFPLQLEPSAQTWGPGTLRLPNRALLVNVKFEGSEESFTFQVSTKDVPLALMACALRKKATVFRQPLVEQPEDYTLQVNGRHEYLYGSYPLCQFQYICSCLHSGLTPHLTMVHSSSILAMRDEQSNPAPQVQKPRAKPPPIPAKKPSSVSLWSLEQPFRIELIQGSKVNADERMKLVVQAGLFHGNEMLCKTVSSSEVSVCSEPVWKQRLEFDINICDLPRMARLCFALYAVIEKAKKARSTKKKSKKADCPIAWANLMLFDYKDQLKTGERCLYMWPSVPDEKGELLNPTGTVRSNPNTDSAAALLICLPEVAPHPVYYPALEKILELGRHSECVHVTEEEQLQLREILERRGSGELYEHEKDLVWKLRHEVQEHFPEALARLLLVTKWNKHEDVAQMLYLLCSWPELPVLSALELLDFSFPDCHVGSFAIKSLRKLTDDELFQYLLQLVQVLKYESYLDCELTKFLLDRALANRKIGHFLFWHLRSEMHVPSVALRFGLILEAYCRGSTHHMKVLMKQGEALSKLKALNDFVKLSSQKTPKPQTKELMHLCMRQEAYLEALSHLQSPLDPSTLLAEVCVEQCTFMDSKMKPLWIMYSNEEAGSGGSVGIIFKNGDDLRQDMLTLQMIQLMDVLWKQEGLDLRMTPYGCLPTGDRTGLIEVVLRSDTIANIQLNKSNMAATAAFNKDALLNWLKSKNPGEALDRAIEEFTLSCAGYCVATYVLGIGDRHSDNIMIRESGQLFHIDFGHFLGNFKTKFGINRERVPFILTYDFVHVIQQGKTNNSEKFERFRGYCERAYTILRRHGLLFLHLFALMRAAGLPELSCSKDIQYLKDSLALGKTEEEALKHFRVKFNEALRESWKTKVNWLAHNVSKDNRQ
Sequence of human phosphoinositide-3 kinase (PI3K) delta (Q63787 whole entry partner): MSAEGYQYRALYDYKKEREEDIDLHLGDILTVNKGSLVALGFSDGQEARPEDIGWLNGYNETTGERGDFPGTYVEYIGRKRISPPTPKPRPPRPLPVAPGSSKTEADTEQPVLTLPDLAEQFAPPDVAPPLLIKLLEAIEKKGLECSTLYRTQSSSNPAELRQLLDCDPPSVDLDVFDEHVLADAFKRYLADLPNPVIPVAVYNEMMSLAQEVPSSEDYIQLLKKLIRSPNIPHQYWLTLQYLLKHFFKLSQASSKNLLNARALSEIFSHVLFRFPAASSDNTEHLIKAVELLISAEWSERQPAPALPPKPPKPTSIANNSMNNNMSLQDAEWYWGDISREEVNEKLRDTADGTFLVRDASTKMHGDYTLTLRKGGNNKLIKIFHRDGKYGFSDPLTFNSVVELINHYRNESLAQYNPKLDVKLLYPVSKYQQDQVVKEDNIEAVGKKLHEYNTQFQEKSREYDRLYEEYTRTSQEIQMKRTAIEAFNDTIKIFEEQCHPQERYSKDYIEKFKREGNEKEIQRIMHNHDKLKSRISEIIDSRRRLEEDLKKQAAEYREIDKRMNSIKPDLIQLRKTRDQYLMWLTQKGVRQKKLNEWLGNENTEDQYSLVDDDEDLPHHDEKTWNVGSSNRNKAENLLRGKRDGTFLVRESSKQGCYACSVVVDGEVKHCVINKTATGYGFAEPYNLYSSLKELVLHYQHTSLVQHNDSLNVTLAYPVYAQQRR
Format: cell-based
Method: 2.1 Phosphoinositide-3 kinase (PI3K)-Mediated Akt 1/2 (S473) Phosphorylation in Rat-1 Cells
Rat-1 cells stably overexpressing a myristoylated form of the catalytic subunit of human phosphoinositide-3 kinase (PI3K) alpha, beta or delta were plated in 384-well plates at a density of 7500 (PI3K alpha), 6200 (PI3K beta), or 4000 (PI3K delta) cells in 30 ul complete growth medium (Dulbecco's modified Eagle's medium (DMEM high glucose) supplemented with 10% (v/v) fetal bovine serum, 1% (v/v) MEM non essential amino acids, 10 mM HEPES, 2 mM L-glutamine, 10 μg/mL puromycin and 1% (v/v) Penicillin/Streptomycin) and were incubated at […]/5% CO2/95% humidity for 24 h. Compounds were diluted in 384-well compound plates (compound master plates), to obtain 8-point serial dilutions for 40 test compounds in 90% DMSO, as well as 4 reference compounds plus 16 high controls and 16 low (inhibited) controls. Predilution plates were prepared by dispensing pipetting 250 nl of compound solutions into 384-well polypropylen plates (daugther plates), using a Hummingwell nanoliter dispenser. Compounds were prediluted by the addition of 49.75 ul complete growth medium. 10 ul of prediluted compound solution were transferred to the cell plate using a 384-well pipettor, resulting in a final DMSO concentration of 0.11%. Cells were incubated for 1 h at […]/5% CO2/95% humidity. The supernatant was removed, the cells were lysed in 20 ul of lysis buffer for AlphaScreen® SureFire® detection.
For detection of p-AKT(Ser473), the SureFire® p-Akt 1/2 (Ser473) Assay Kit (PerkinElmer, U.S.A.) was used. 5 ul of cell lysate was transferred to 384-well low volume Proxiplates for detection using a 384-well pipettor. Addition of AlphaScreen® SureFire® reagents was done according to the manufacturer's protocol. First, 5 ul of reaction buffer plus activation buffer mix containing AlphaScreen® acceptor beads was added, the plate was sealed, and incubated on a plate shaker for 2 hours at room temperature. Second, 2 ul of dilution buffer containing AlphaScreen® donor beads was added, and the plate was incubated on plate shaker as above for a further 2 hours. The plate was read on an AlphaScreen® compatible plate reader, using standard AlphaScreen® settings. Alternatively, p-AKT(Ser473) was detected with the CisBio HTRF Assay Kit: As positive control, 0.9 mM of 1-(3-(trifluoromethyl)-4-(piperazin-1-yl)phenyl)-8-(6-methoxypyridin-3-yl)-3-methyl-1H-imidazo[4,5-c]quinolin-2(3H)-one maleic acid salt in 90% (v/v) DMSO was added to the compound master plate. For compound testing, the cells were seeded at a density of 4000 (Rat-1_PI3Kdelta), 8000 (Rat-1_PI3Kalpha), or 6500 (Rat-1_PI3Kbeta) cells in 30 ul complete growth medium into 384-well plates, with a plastic surface promoting the adhesion of cells and their growth (assay plates) and were grown at 37° C./5% CO2/90% humidity for 24 h. Some 10 ul of the compound predilutions from the daughter plate were then transferred to the cells. After treatment with compound for 1 h, medium was removed and cells were lysed by the addition of 20 ul lysis buffer supplemented with blocking buffer. Detection of p-AKT(Ser473) was performed with the HTRF pAKT (Ser473) assay kit according to the manufacturer's instructions using 16 ul of cell lysate in a total detection volume of 20 ul.
Molecule `COc1ncc(-c2cccc3nc([C@@H]4C[C@H](O)CN4c4nc(N)nc(C)c4C#N)n(-c4ccccc4)c(=O)c23)cn1` [Example 22, 2-Amino-4-((2S,4S)-4-hydroxy-2-(5-(2-methoxypyrimidin-5-yl)-4-oxo-3-phenyl-3,4-dihydroquinazolin-2-yl)pyrrolidin-1-yl)-6-methylpyrimidine-5-carbonitrile] has an IC50 of 7 nM. Work on `Cc1nc(N)nc(N2C[C@@H](O)C[C@H]2c2nc3cccc(-c4cccnc4)c3c(=O)n2-c2ccccc2)c1C#N` [Example 24, 2-Amino-4-((2S,4S)-4-hydroxy-2-(4-oxo-3-phenyl-5-(pyridin-3-yl)-3,4-dihydroquinazolin-2-yl)pyrrolidin-1-yl)-6-methylpyrimidine-5-carbonitrile] yielded an IC50 of less than 3 nM. `COc1cncc(-c2cccc3nc([C@@H]4C[C@H](O)CN4c4nc(N)nc(C)c4C#N)n(-c4ccccc4)c(=O)c23)c1` [Example 25, 2-Amino-4-((2S,4S)-4-hydroxy-2-(5-(5-methoxypyridin-3-yl)-4-oxo-3-phenyl-3,4-dihydroquinazolin-2-yl)pyrrolidin-1-yl)-6-methylpyrimidine-5-carbonitrile] gave an IC50 of 4 nM. With `Cc1nc(N)nc(N2C[C@@H](O)C[C@H]2c2nc3cccc(-c4cncnc4)c3c(=O)n2-c2ccccc2)c1C#N` [Example 26, 2-Amino-4-((2S,4S)-4-hydroxy-2-(4-oxo-3-phenyl-5-(pyrimidin-5-yl)-3,4-dihydroquinazolin-2-yl)pyrrolidin-1-yl)-6-methylpyrimidine-5-carbonitrile] the IC50 was 7 nM. For `COc1ccc(-c2cccc3nc([C@@H]4C[C@H](O)CN4c4nc(N)nc(C)c4C#N)n(-c4ccccc4)c(=O)c23)cn1` [Example 27, 2-Amino-4-((2S,4S)-4-hydroxy-2-(5-(6-methoxypyridin-3-yl)-4-oxo-3-phenyl-3,4-dihydroquinazolin-2-yl)pyrrolidin-1-yl)-6-methylpyrimidine-5-carbonitrile], the IC50 was 6 nM. `Cc1nc(N)nc(N2C[C@@H](O)C[C@H]2c2nc3cccc(-c4cnn(CCO)c4)c3c(=O)n2-c2ccccc2)c1C#N` [Example 28, 2-Amino-4-((2S,4S)-4-hydroxy-2-(5-(1-(2-hydroxyethyl)-1H-pyrazol-4-yl)-4-oxo-3-phenyl-3,4-dihydroquinazolin-2-yl)pyrrolidin-1-yl)-6-methylpyrimidine-5-carbonitrile] was tested, and the IC50 was 90 nM. In the case of `CCOc1ncc(-c2c(F)ccc3nc([C@@H]4C[C@H](O)CN4c4nc(N)nc(C)c4C#N)n(-c4ccccc4)c(=O)c23)cn1` [Example 29, 2-Amino-4-((2S,4S)-2-(5-(2-ethoxypyrimidin-5-yl)-6-fluoro-4-oxo-3-phenyl-3,4-dihydroquinazolin-2-yl)-4-hydroxypyrrolidin-1-yl)-6-methylpyrimidine-5-carbonitrile], the IC50 is reported as 6 nM. `Cc1nc(N)nc(N2C[C@@H](F)C[C@H]2c2nc3cccc(-c4cnn(C)c4)c3c(=O)n2-c2ccccc2)c1C#N` [Example 30, 2-Amino-4-((2S,4S)-4-fluoro-2-(5-(1-methyl-1H-pyrazol-4-yl)-4-oxo-3-phenyl-3,4-dihydroquinazolin-2-yl)pyrrolidin-1-yl)-6-methylpyrimidine-5-carbonitrile] gave an IC50 of less than 10 nM. `Cc1nc(N)nc(N2C[C@@H](O)C[C@H]2c2nc3ccc(F)c(-c4cn(C)cn4)c3c(=O)n2-c2ccccc2)c1C#N` [Example 31, 2-Amino-4-((2S,4S)-2-(6-fluoro-5-(1-methyl-1H-imidazol-4-yl)-4-oxo-3-phenyl-3,4-dihydroquinazolin-2-yl)-4-hydroxypyrrolidin-1-yl)-6-methylpyrimidine-5-carbonitrile] showed an IC50 of 120 nM. Molecule `CCOc1ncc(-c2cccc3nc([C@@H]4CCCN4c4nc(N)nc(C)c4C#N)n(-c4ccccc4)c(=O)c23)cn1` [Example 32, (S)-2-Amino-4-(2-(5-(2-ethoxypyrimidin-5-yl)-4-oxo-3-phenyl-3,4-dihydroquinazolin-2-yl)pyrrolidin-1-yl)-6-methylpyrimidine-5-carbonitrile] has an IC50 of less than 3 nM. `N#Cc1c(N)ncnc1N1CCC[C@H]1c1nc2cccc(C#CCO)c2c(=O)n1-c1ccccc1` [Example 33, (S)-4-Amino-6-(2-(5-(3-hydroxyprop-1-yn-1-yl)-4-oxo-3-phenyl-3,4-dihydroquinazolin-2-yl)pyrrolidin-1-yl)pyrimidine-5-carbonitrile] showed an IC50 of 14 nM.
